pIC50: −log10 of the molar value. Like-named read-outs stand apart in the source and are kept apart here.
Experiments:
[1] = molecular target: GSK3α (GST-full length GSK3α) (Homo sapiens (Human), UniProt P49840); test: GSK3α TR-FRET kinase assay; format: biochemical
Summary of the method: (§1)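 Compound preincubated 30 min, then 1 nM GST-full-length GSK3α or GSK3b run 100 min at ambient temperature with 200 nM biotinylated, S645-prephosphorylated glycogen synthase 631-650 peptide in Tris pH 7.5, MgCl2, DTT, BSA, 1% DMSO. ATP 4 μM (α) or 2 μM (β), or 1 mM. EDTA-quenched; Tb-anti-pSer641/streptavidin-d2 TR-FRET 665/615 ratio gave IC50.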

[2] = molecular target: GSK3b (GST-full length GSK3b) (Homo sapiens (Human), UniProt P49841); test: GSK3b TR-FRET kinase assay; format: biochemical
Sequence of GSK3b (GST-full length GSK3b) (P49841 whole entry): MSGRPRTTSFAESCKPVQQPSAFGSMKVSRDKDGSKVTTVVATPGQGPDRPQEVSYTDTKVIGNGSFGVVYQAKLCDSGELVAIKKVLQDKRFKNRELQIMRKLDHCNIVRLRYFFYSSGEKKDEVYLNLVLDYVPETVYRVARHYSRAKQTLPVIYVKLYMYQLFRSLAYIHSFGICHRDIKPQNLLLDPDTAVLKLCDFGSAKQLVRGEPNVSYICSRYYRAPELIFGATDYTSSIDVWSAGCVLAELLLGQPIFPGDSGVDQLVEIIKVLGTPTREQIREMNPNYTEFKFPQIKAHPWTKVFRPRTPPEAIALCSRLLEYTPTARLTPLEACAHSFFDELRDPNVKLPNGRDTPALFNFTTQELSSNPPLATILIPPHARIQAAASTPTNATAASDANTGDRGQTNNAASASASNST
Summary of the method: as §1

[3] = 1 nM GSK3α, 4 μM ATP, 30 minute preincubation, Table 16, read-out: GSK3-A TR-FRET BIOCHEMICAL (TR-FRET), IC50
[4] = 1 nM GSK3b, 2 μM ATP, 30 minute preincubation, Table 16, read-out: GSK3-B TR-FRET BIOCHEMICAL (TR-FRET), IC50
[5] = read-out: GSK3-A (TR-FRET 1 mM ATP), GMean, IC50, 1 mM ATP, geometric mean
[6] = read-out: GSK3-B (TR-FRET 1 mM ATP), GMean, IC50, 1 mM ATP, geometric mean
[7] = 1 nM GSK3α, 4 μM ATP, 30 minute preincubation, read-out: GSK3-A TR-FRET BIOCHEMICAL (TR-FRET), IC50
[8] = 1 nM GSK3b, 2 μM ATP, 30 minute preincubation, read-out: GSK3-B TR-FRET BIOCHEMICAL (TR-FRET), IC50
[9] = 1 nM GSK3α, 4 μM ATP, 30 minute preincubation, Table 16, read-out: GSK3-A TR-FRET BIOCHEMICAL (TR-FRET)
[10] = 1 nM GSK3b, 2 μM ATP, 30 minute preincubation, Table 16, read-out: GSK3-B TR-FRET BIOCHEMICAL (TR-FRET)

Sequence of GSK3α (GST-full length GSK3α) (P49840 whole entry): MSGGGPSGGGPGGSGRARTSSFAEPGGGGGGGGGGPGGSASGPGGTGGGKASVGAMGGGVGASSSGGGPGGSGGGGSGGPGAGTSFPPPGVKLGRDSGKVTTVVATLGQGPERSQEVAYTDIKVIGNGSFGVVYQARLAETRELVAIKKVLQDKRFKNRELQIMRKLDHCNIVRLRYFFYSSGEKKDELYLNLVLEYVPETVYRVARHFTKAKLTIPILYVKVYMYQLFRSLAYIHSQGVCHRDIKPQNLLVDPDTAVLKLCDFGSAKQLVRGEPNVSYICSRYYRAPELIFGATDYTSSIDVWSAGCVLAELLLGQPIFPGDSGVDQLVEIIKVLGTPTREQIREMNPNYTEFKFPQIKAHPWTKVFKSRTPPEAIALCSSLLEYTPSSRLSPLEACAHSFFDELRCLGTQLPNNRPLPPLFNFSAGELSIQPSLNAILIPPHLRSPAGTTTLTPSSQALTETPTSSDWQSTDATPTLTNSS

pIC50 [1, 3] | pIC50 [2, 4] | Structure (SMILES) | also measured
6.00 to 7.00 | < 5.30 | CCC1(c2cccc(N(C)c3cccnn3)c2)C2=C(CC(C)(C)CC2=O)Nc2n[nH]cc21 (centres unmarked) [Compound 911976] | –
5.30 to 6.00 | < 5.30 | CCC1(c2cccc(-c3ccnc(OC)c3)c2)C2=C(CC(C)(C)CC2=O)Nc2n[nH]cc21 (centres unmarked) [Compound 911989] | –
≥ 7.00 | ≥ 7.00 | CC[C@@]1(c2cccc(-c3c(C)nn(C)c3C)c2)C2=C(CC(C)(C)CC2=O)Nc2n[nH]cc21 [Compound 911990] | pIC50 [1, 5]: ≥ 7.00; pIC50 [2, 6]: 6.00 to 7.00
5.30 to 6.00 | < 5.30 | CCC1(c2cccc(N3CCc4ccncc43)c2)C2=C(CC(C)(C)CC2=O)Nc2n[nH]cc21 (centres unmarked) [Compound 912004] | –
≥ 7.00 | ≥ 7.00 | CCC1(c2cccc(N(CCc3ccccc3)C(C)=O)c2)C2=C(CC(C)(C)CC2=O)Nc2n[nH]cc21 (centres unmarked) [Compound 912064] | –
< 5.30 | < 5.30 | CC1(C)CC(=O)C2=C(C1)Nc1n[nH]cc1C21CN(c2ccncc2)C1 [Compound 912077] | –
6.00 to 7.00 | < 5.30 | CCC1(c2cccc(C3CCOC(C)(C)C3)c2)C2=C(CC(C)(C)CC2=O)Nc2n[nH]cc21 (centres unmarked) [Compound 912088] | –
< 5.30 | < 5.30 | CC[C@]1(c2cccc([C@@H]3CCOC(C)(C)C3)c2)C2=C(CC(C)(C)CC2=O)Nc2n[nH]cc21 [Compound 912091] | –
< 5.30 | < 5.30 | CC1(C)CC(=O)C2=C(C1)Nc1n[nH]cc1C21CCCCC1=O (centres unmarked) [Compound 912105] | –
6.00 to 7.00 | 5.30 to 6.00 | CC1(C)CC(=O)C2=C(C1)Nc1n[nH]cc1[C@]21CCO[C@@H](C(C)(C)C)C1 [Compound 912106] | –
< 5.30 | < 5.30 | CC1(C)CC(=O)C2=C(C1)Nc1n[nH]cc1[C@@]21CCO[C@H](C(C)(C)C)C1 [Compound 912107] | –
5.30 to 6.00 | 5.30 to 6.00 | CC1(C)CC(=O)C2=C(C1)Nc1n[nH]cc1[C@@]21CCO[C@@H](C(C)(C)C)C1 [Compound 912113] | –
≥ 7.00 | ≥ 7.00 | CCC1(c2cccc(S(=O)(=O)C(C)C)c2)C2=C(CC(C)(C)CC2=O)Nc2n[nH]cc21 (centres unmarked) [Compound 912169] | –

Second part, the compound before the results:

Structure (SMILES) | pIC50 [1, 3] | pIC50 [2, 4] | also measured
CCC1(c2cccc(-c3c(C)nn(C)c3C)c2)C2=C(CC(C)(C)CC2=O)Nc2n[nH]cc21 (centres unmarked) [Compound 911991] | 6.00 to 7.00 | < 5.30 | –
CCC1(c2cccc(-c3ccnn3C)c2)C2=C(CC(C)(C)CC2=O)Nc2n[nH]cc21 (centres unmarked) [Compound 911992] | ≥ 7.00 | ≥ 7.00 | pIC50 [1, 5]: ≥ 7.00; pIC50 [2, 6]: 6.00 to 7.00
CC[C@]1(c2cccc(C(F)(F)F)c2)C2=C(CCN(Cc3ccccc3)C2=O)Nc2n[nH]cc21 [Compound 912006] | – | – | pIC50 [1, 7]: < 5.30; pIC50 [2, 8]: < 5.30
CCC1(c2cccc(N(C)C(=O)CCc3ccccc3)c2)C2=C(CC(C)(C)CC2=O)Nc2n[nH]cc21 (centres unmarked) [Compound 912066] | ≥ 7.00 | 6.00 to 7.00 | –
CCC1(c2cccc(N(C)C(=O)c3cnn(C)c3)c2)C2=C(CC(C)(C)CC2=O)Nc2n[nH]cc21 (centres unmarked) [Compound 912068] | ≥ 7.00 | 6.00 to 7.00 | –
CCC1(c2cccc(N(C(C)=O)C3CCCC3)c2)C2=C(CC(C)(C)CC2=O)Nc2n[nH]cc21 (centres unmarked) [Compound 912069] | ≥ 7.00 | ≥ 7.00 | –
CCC1(c2cccc(N(C)C(=O)Cc3ccccc3)c2)C2=C(CC(C)(C)CC2=O)Nc2n[nH]cc21 (centres unmarked) [Compound 912071] | ≥ 7.00 | ≥ 7.00 | –
Cc1[nH]nc2c1C1(CCOCC1)C1=C(CC(C)(C)C(F)C1=O)N2 (centres unmarked) [Compound 912072] | – | – | pIC50 [1, 9]: 6.00 to 7.00; pIC50 [2, 10]: 6.00 to 7.00
CC1(C)CC(=O)C2=C(C1)Nc1n[nH]cc1C21CN(CC(F)F)C1 [Compound 912073] | – | – | pIC50 [1, 9]: 6.00 to 7.00; pIC50 [2, 10]: 6.00 to 7.00
CC1(C)CC(=O)C2=C(C1)Nc1n[nH]cc1C21CN(CC(F)(F)F)C1 [Compound 912074] | – | – | pIC50 [1, 9]: ≥ 7.00; pIC50 [2, 10]: 6.00 to 7.00
CC1(C)CC(=O)C2=C(C1)Nc1n[nH]cc1C21CNC1 [Compound 912075] | 5.30 to 6.00 | < 5.30 | –
CC1(C)CC(=O)C2=C(C1)Nc1n[nH]cc1C21CN(C2COC2)C1 [Compound 912076] | – | – | pIC50 [1, 9]: 6.00 to 7.00; pIC50 [2, 10]: 5.30 to 6.00
C[C@H]1CC(=O)C2=C(C1)Nc1n[nH]cc1C21CCOCC1 [Compound 912078] | 6.00 to 7.00 | 6.00 to 7.00 | –
C[C@@H]1CC(=O)C2=C(C1)Nc1n[nH]cc1C21CCOCC1 [Compound 912079] | 6.00 to 7.00 | 6.00 to 7.00 | –
O=C1C2=C(Nc3n[nH]cc3C23CCOCC3)[C@H]2CC[C@@H]1C2 [Compound 912080] | – | – | pIC50 [1, 9]: 6.00 to 7.00; pIC50 [2, 10]: 6.00 to 7.00
O=C1C2=C(Nc3n[nH]cc3C23CCOCC3)[C@@H]2CC[C@H]1C2 [Compound 912081] | – | – | pIC50 [1, 9]: 6.00 to 7.00; pIC50 [2, 10]: 5.30 to 6.00
CC1(C)CC(=O)C2=C(C1)Nc1n[nH]cc1C21CCC(c2ccccc2)CC1 (centres unmarked) [Compound 912084] | – | – | pIC50 [1, 9]: ≥ 7.00; pIC50 [2, 10]: ≥ 7.00

Structure (SMILES) | pIC50 [1, 3] | pIC50 [2, 4] | also measured
CCC1(c2cccc(C3CCOC(C)(C)C3)c2)C2=C(CC(C)(C)CC2=O)Nc2n[nH]cc21 (centres unmarked) [Compound 912089] | 6.00 to 7.00 | 6.00 to 7.00 | –
CCC1(c2cccc(C3CCOC(C)(C)C3)c2)C2=C(CC(C)(C)CC2=O)Nc2n[nH]cc21 (centres unmarked) [Compound 912090] | 6.00 to 7.00 | < 5.30 | –
CC1(C)CC(=O)C2=C(C1)Nc1n[nH]cc1C21CCN(S(C)(=O)=O)C1 (centres unmarked) [Compound 912092] | – | – | pIC50 [1, 9]: ≥ 7.00; pIC50 [2, 10]: ≥ 7.00
CC1(C)CC(=O)C2=C(C1)Nc1n[nH]cc1C21COCCOC1 [Compound 912094] | 5.30 to 6.00 | < 5.30 | –
CC[C@@]1(c2cccc(C(F)(F)F)c2)C2=C(C[C@H](C)NC2=O)Nc2n[nH]cc21 [Compound 912097] | – | – | pIC50 [1, 7]: 6.00 to 7.00; pIC50 [2, 8]: < 5.30
CC[C@]1(c2cccc(C(F)(F)F)c2)C2=C(C[C@H](C)NC2=O)Nc2n[nH]cc21 [Compound 912099] | – | – | pIC50 [1, 7]: < 5.30; pIC50 [2, 8]: < 5.30
CCC1(c2cccc(C(F)(F)F)c2)C2=C(Nc3n[nH]cc31)C(C)(C)NC2=O (centres unmarked) [Compound 912104] | – | – | pIC50 [1, 9]: ≥ 7.00; pIC50 [2, 10]: 6.00 to 7.00
CC1(C)CC(=O)C2=C(C1)Nc1n[nH]cc1[C@]21CCO[C@H](C(C)(C)C)C1 [Compound 912112] | – | – | pIC50 [1, 9]: 6.00 to 7.00; pIC50 [2, 10]: 6.00 to 7.00
CC1(C)CC(=O)C2=C(C1)Nc1n[nH]cc1C21CC2(COC2)C1 [Compound 912168] | – | – | pIC50 [1, 7]: < 5.30; pIC50 [2, 8]: < 5.30
CC1(C)CC(=O)C2=C(C1)Nc1n[nH]cc1C21CS(=O)(=O)C1 [Compound 912170] | 5.30 to 6.00 | < 5.30 | –
CCC1(c2cccc(S(=O)(=O)C3CC3)c2)C2=C(CC(C)(C)CC2=O)Nc2n[nH]cc21 (centres unmarked) [Compound 912171] | – | – | pIC50 [1, 5]: ≥ 7.00; pIC50 [2, 6]: 6.00 to 7.00
COC[C@H]1C[C@]2(C1)C1=C(CC(C)(C)CC1=O)Nc1n[nH]cc12 [Compound 912173] | – | – | pIC50 [1, 9]: 6.00 to 7.00; pIC50 [2, 10]: 6.00 to 7.00
CC[C@@]1(c2cccc(C(F)(F)F)c2)C2=C(CCN(CC(F)(F)F)C2=O)Nc2n[nH]cc21 [Compound 912205] | – | – | pIC50 [1, 7]: < 5.30; pIC50 [2, 8]: < 5.30
CCC1(c2cccc(C(F)(F)F)c2)C2=C(CCN(CC(F)(F)F)C2=O)Nc2n[nH]cc21 (centres unmarked) [Compound 912206] | – | – | pIC50 [1, 7]: ≥ 7.00; pIC50 [2, 8]: 6.00 to 7.00
CC1(C)CC(=O)C2=C(C1)Nc1n[nH]cc1C21CCC2(CCC(=O)N2C(=O)OC(C)(C)C)CC1 (centres unmarked) [Compound 912217] | – | – | pIC50 [1, 7]: 5.30 to 6.00; pIC50 [2, 8]: < 5.30
CCC1(c2cccc(C(F)(F)F)c2)C2=C(CCNC2=O)Nc2n[nH]cc21 (centres unmarked) [Compound 912622] | – | – | pIC50 [1, 7]: 6.00 to 7.00; pIC50 [2, 8]: 5.30 to 6.00
CC[C@]1(c2cccc(C(F)(F)F)c2)C2=C(CCNC2=O)Nc2n[nH]cc21 [Compound 912668] | – | – | pIC50 [1, 7]: < 5.30; pIC50 [2, 8]: < 5.30

Reference: patent US20250313563A1, “GLYCOGEN SYNTHASE KINASE 3 INHIBITORS AND USES THEREOF” (The Broad Institute, Inc., priority 2022, published 2025)
